Results: patent US5053070A, “Pyrimidine derivatives, preparation processes thereof, herbicide containing the same, and herbicidal compositions containing the same along with other active ingredient” (Mitsui Toatsu Chemicals, Incorporated, priority 1988, dated 1991)

Experiments:
green foxtail [1] = test: Upland foliar application test by mixed formulations (Test 7); type: in vivo; conditions: applied alone, 30th day
Protocol: (§1) Resin-made 1/10,000-are pots were filled with the soil of an upland field. Redroot pigweed, morningglories, johnsongrass, barnyardgrass and green foxtail were separately seeded and were allowed to germinate in a green house. When each plant grew to the stage of 2-3 leaves, an emulsion formulated from predetermined amounts of two test compounds of different kinds in a similar manner to the method described in Formulation Example 16 was diluted with water to a predetermined dilution rate and then sprayed at an application rate equal to 5 l per are onto the foliage of each plant by means of a pressure-operated ULV (ultra low volume) sprayer. Influence to the weeds were observed on the 30th day after the spray of the herbicides. In the table, each Ea means an acutally measured value of herbicidal activities when two kinds of herbicides were mixed. Each Ec is an expected value for herbicidal activities, calculated in accordance with the below-described calculation formula proposed by Colby et al. [Colby, S. R., Weed 15, 20-22 (1967)]. Ea>Ec indicates the existence of synergistic action while […] action. [formula] Ec: Growth inhibition rate (%) expected when Ingredient I and Ingredient II are mixed.
(§2) Ex: Growth inhibition rate (%) when treated with Ingredient I alone.
(§3) Ey: Growth inhibition rate (%) when treated with Ingredient II alone.

morningglories = test: as above; type: in vivo; conditions: Ipomoea, 720 h, applied alone, 30th day, read-out: Herbicidal effects (%) Morningglory Ea
Protocol: as §1, §2, §3

[2] = tested on: ALS (acetolactate syntase); test: ALS enzyme assay (Test 1); type: biochemical, pea; conditions: 1,000 ppm (0.5 mg/0.5 ml)
In short: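 Partially purified ALS from dark-grown pea and barnyardgrass seedlings incubated 1 h at 30° C with pyruvate, TPP, MgCl2 and FAD. Compounds tested at 1,000 ppm (0.5 mg/0.5 ml). Acetoin formed detected colorimetrically at 525 nm via creatine/α-naphthol, relative to blank and acid-stopped controls.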

soybean [3] = test: Upland foliar application test (Test 3), crop injury; type: in vivo; conditions: 30 g ai/a, foliar spray at 2-3 leaves, 30th day
In short: (§4)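 Upland-soil pots seeded with weeds and crops (incl. cotton, large crabgrass, johnsongrass, common lambsquarters), grown in greenhouse to 2-3 leaf stage. Emulsion diluted with water sprayed on foliage at 5 l per are via ULV sprayer. Weed damage and crop injury scored 30 days after spraying.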

cotton [4] = test: as above; type: in vivo; conditions: 30 g ai/a, foliar spray at 2-3 leaves, 30th day
In short: as §4

redroot pigweed = test: Upland soil application test (Test 2); type: in vivo; conditions: 30 g ai/a, soil spray before emergence, 30 days later
In short: (§5)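 Pre-emergence soil spray, greenhouse. Weed seeds mixed through upland soil; crops sown alongside. Day 1 post-sowing: wettable-powder formulation, water-diluted, applied at 10 l/are by pressure ULV sprayer. Read at 30 days as air-dried weight vs untreated pots, scored on a graded damage scale.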

johnsongrass = test: Upland soil application test (Test 2); type: in vivo; conditions: 30 g ai/a, soil spray before emergence, 30 days later
In short: as §5

green foxtail [5] = test: Upland soil application test (Test 2); type: in vivo; conditions: 30 g ai/a, soil spray before emergence, 30 days later
In short: as §5

common lambsquarters = test: Upland soil application test (Test 2); type: in vivo; conditions: 30 g ai/a, soil spray before emergence, 30 days later
In short: as §5

foxtail meadow = test: Upland soil application test (Test 2); type: in vivo; conditions: 30 g ai/a, soil spray before emergence, 30 days later
In short: as §5

barnyardgrass = test: Upland soil application test (Test 2); type: in vivo; conditions: 30 g ai/a, soil spray before emergence, 30 days later
In short: as §5

large crabgrass = test: Upland soil application test (Test 2); type: in vivo; conditions: 30 g ai/a, soil spray before emergence, 30 days later
In short: as §5

peanut = test: Upland soil application test (Test 2), crop injury; type: in vivo; conditions: 30 g ai/a, soil spray before emergence, 30 days later
In short: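 Pre-emergence test in upland soil pots with weed seeds mixed into the soil; one day after seeding, wettable-powder formulation diluted in water and sprayed onto the soil surface at 10 l per are. Damage scored 30 days later from air-dried weight relative to untreated pots.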

soybean [6] = test: Upland soil application test (Test 2), crop injury; type: in vivo; conditions: 30 g ai/a, soil spray before emergence, 30 days later
In short: (§6)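 Soil-surface application of water-diluted wettable powder at 10 l per are, made one day after seeding and ahead of weed emergence. Plants stayed in the greenhouse for 30 days; injury was rated by air-dried weight versus untreated pots.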

cotton [7] = test: Upland soil application test (Test 2), crop injury; type: in vivo; conditions: 30 g ai/a, soil spray before emergence, 30 days later
In short: as §6

Row | Compound | pest or weed control at 300 g/ha (green foxtail [1]; Setaria viridis, 720 h, 0.3 kg/ha, read-out: Herbicidal effects (%) Green foxtail Ea) [%] | Herbicidal effects (%) Green foxtail Ea (green foxtail [1]; 0.3 kg/ha) [%] | pest or weed control at 300 g/ha (morningglories; 0.3 kg/ha) [%] | Inhibitory activity (%) Pea [2] [%] | Injury Soybean (soybean [3]) | Injury Cotton (cotton [4]) | Herbicidal effects Redroot pigweed (redroot pigweed) | Herbicidal effects Johnsongrass (johnsongrass) | Herbicidal effects Green foxtail (green foxtail [5]) | Herbicidal effects Common lambsquarters (common lambsquarters) | Herbicidal effects Foxtail meadow (foxtail meadow) | Herbicidal effects Barnyardgrass (barnyardgrass) | Herbicidal effects Large crabgrass (large crabgrass) | Injury Peanut (peanut) | Injury Soybean (soybean [6]) | Injury Cotton (cotton [7]) | pest or weed control at 1000 g/ha (green foxtail [1]; Setaria viridis, 720 h, 1 kg/ha, read-out: Herbicidal effects (%) Green foxtail Ea) [%] | pest or weed control at 1000 g/ha (morningglories; 1 kg/ha) [%]
1 | COc1cc(OC)nc(Oc2ccccc2C=NOCC=Cc2ccccc2)n1 [Compound No. 9] | 70 | 70 | 0 | 11 | 0 (91-100 (No damages)) | 0 (91-100 (No damages)) | 5 (0-5 (Death)) | 5 (0-5 (Death)) | 5 (0-5 (Death)) | 4 (6-10 (Severe damages)) | 5 (0-5 (Death)) | 5 (0-5 (Death)) | 5 (0-5 (Death)) | 0 (91-100 (No damages)) | 0 (91-100 (No damages)) | 0 (91-100 (No damages)) | – | –
2 | C#CCON=Cc1ccccc1Oc1nc(OC)cc(OC)n1 [Compound No. 13, 0-(2-propynyl)-2-(4,6-dimethoxy-2-pyrimidinyloxy)benzaldoxime] | – | – | – | 0 | 0 (91-100 (No damages)) | 0 (91-100 (No damages)) | 5 (0-5 (Death)) | 5 (0-5 (Death)) | 5 (0-5 (Death)) | 4 (6-10 (Severe damages)) | 5 (0-5 (Death)) | 5 (0-5 (Death)) | 5 (0-5 (Death)) | 0 (91-100 (No damages)) | 0 (91-100 (No damages)) | 0 (91-100 (No damages)) | 40 | 10
3 | COc1cc(OC)nc(Oc2ccccc2C=NOCC=Cc2c(F)cccc2F)n1 [compound 33] | – | – | – | 0 | 0 (91-100 (No damages)) | 0 (91-100 (No damages)) | 4 (6-10 (Severe damages)) | 5 (0-5 (Death)) | 5 (0-5 (Death)) | 4 (6-10 (Severe damages)) | 5 (0-5 (Death)) | 5 (0-5 (Death)) | 5 (0-5 (Death)) | 0 (91-100 (No damages)) | 0 (91-100 (No damages)) | 0 (91-100 (No damages)) | – | –
4 | COc1cc(OC)nc(Oc2ccccc2C=NOCC=Cc2ccc(C(F)(F)F)cc2)n1 [compound 35] | – | – | – | 10 | 0 (91-100 (No damages)) | 0 (91-100 (No damages)) | 4 (6-10 (Severe damages)) | 5 (0-5 (Death)) | 5 (0-5 (Death)) | 5 (0-5 (Death)) | 5 (0-5 (Death)) | 5 (0-5 (Death)) | 5 (0-5 (Death)) | 0 (91-100 (No damages)) | 0 (91-100 (No damages)) | 0 (91-100 (No damages)) | – | –
5 | COc1cc(OC)nc(Oc2ccccc2C=NOCC=Cc2ccc(C)cc2)n1 [compound 36] | – | – | – | 0 | 0 (91-100 (No damages)) | 0 (91-100 (No damages)) | 4 (6-10 (Severe damages)) | 5 (0-5 (Death)) | 5 (0-5 (Death)) | 4 (6-10 (Severe damages)) | 5 (0-5 (Death)) | 5 (0-5 (Death)) | 5 (0-5 (Death)) | 0 (91-100 (No damages)) | 0 (91-100 (No damages)) | 0 (91-100 (No damages)) | – | –
6 | CCc1ccc(C=CCON=Cc2ccccc2Oc2nc(OC)cc(OC)n2)cc1 [compound 37] | – | – | – | 0 | 0 (91-100 (No damages)) | 0 (91-100 (No damages)) | 4 (6-10 (Severe damages)) | 5 (0-5 (Death)) | 5 (0-5 (Death)) | 4 (6-10 (Severe damages)) | 5 (0-5 (Death)) | 4 (6-10 (Severe damages)) | 5 (0-5 (Death)) | 0 (91-100 (No damages)) | 0 (91-100 (No damages)) | 0 (91-100 (No damages)) | – | –
7 | COc1cc(OC)nc(Oc2ccccc2C=NOCC=Cc2cccc(Cl)c2Cl)n1 [compound 41] | – | – | – | 0 | 0 (91-100 (No damages)) | 0 (91-100 (No damages)) | 5 (0-5 (Death)) | 4 (6-10 (Severe damages)) | 4 (6-10 (Severe damages)) | 4 (6-10 (Severe damages)) | 4 (6-10 (Severe damages)) | 5 (0-5 (Death)) | 5 (0-5 (Death)) | 0 (91-100 (No damages)) | 0 (91-100 (No damages)) | 0 (91-100 (No damages)) | – | –
